ChEMBL document CHEMBL3734705, “Synthesis and in vitro cytotoxicity of novel C-12 substituted-14-deoxy-andrographolide derivatives as potent anti-cancer agents” (2015)

What was measured:
[1] = Cytotoxicity against human Hs578T cells assessed as growth level at 10 uM after 48 hrs by SRB assay; type: functional, Hs-578T
[2] = Cytotoxicity against human SF268 cells after 48 hrs by SRB assay; type: functional; conditions: SF-268, 48 h
[3] = Cytotoxicity against human DU145 cells after 48 hrs by SRB assay; type: functional; conditions: DU-145, 48 h
[4] = Cytotoxicity against human OVCAR3 cells assessed as growth level at 10 uM after 48 hrs by SRB assay; type: functional, OVCAR-3
ACHN = test: Cytotoxicity against human ACHN cells after 48 hrs by SRB assay; type: functional
[5] = Cytotoxicity against human OVCAR8 cells assessed as growth level at 10 uM after 48 hrs by SRB assay; type: functional, OVCAR-8
MDA-MB-435 [6] = test: Cytotoxicity against human MDA-MB-435 cells assessed as growth level at 10 uM after 48 hrs by SRB assay; type: functional
[7] = Cytotoxicity against human SNB75 cells assessed as growth level at 10 uM after 48 hrs by SRB assay; type: functional, SNB-75
KM12 [8] = test: Cytotoxicity against human KM12 cells assessed as growth level at 10 uM after 48 hrs by SRB assay; type: functional
NCI-H522 = test: Cytotoxicity against human NCI-H522 cells after 48 hrs by SRB assay; type: functional; conditions: NCI-H522, 48 h
[9] = Cytotoxicity against human OVCAR3 cells after 48 hrs by SRB assay; type: functional; conditions: OVCAR-3, 48 h
[10] = Cytotoxicity against human RPMI8226 cells assessed as growth level at 10 uM after 48 hrs by SRB assay; type: functional, RPMI-8226
[11] = Cytotoxicity against human UACC257 cells assessed as growth level at 10 uM after 48 hrs by SRB assay; type: functional, UACC-257
SR = test: Cytotoxicity against human SR cells assessed as growth level at 10 uM after 48 hrs by SRB assay; type: functional
[12] = Cytotoxicity against human NCI-ADR-RES cells assessed as growth level at 10 uM after 48 hrs by SRB assay; type: functional
[13] = Cytotoxicity against human HOP92 cells after 48 hrs by SRB assay; type: functional; conditions: HOP-92, 48 h
CCRF-CEM = test: Cytotoxicity against human CCRF-CEM cells after 48 hrs by SRB assay; type: functional
[14] = Cytotoxicity against human MOLT4 cells after 48 hrs by SRB assay; type: functional; conditions: MOLT-4, 48 h
MDA-MB-468 [15] = test: Cytotoxicity against human MDA-MB-468 cells assessed as growth level at 10 uM after 48 hrs by SRB assay; type: functional
EKVX [16] = test: Cytotoxicity against human EKVX cells after 48 hrs by SRB assay; type: functional
[17] = Cytotoxicity against human LOXIMVI cells after 48 hrs by SRB assay; type: functional; conditions: LOX IMVI
[18] = Cytotoxicity against human SF295 cells after 48 hrs by SRB assay; type: functional; conditions: SF-295, 48 h
[19] = Cytotoxicity against human SW620 cells assessed as growth level at 10 uM after 48 hrs by SRB assay; type: functional, SW-620
MDA-MB-468 [20] = test: Cytotoxicity against human MDA-MB-468 cells after 48 hrs by SRB assay; type: functional; conditions: MDA-MB-468, 48 h
EKVX [21] = test: Cytotoxicity against human EKVX cells assessed as growth level at 10 uM after 48 hrs by SRB assay; type: functional
KM12 [22] = test: Cytotoxicity against human KM12 cells after 48 hrs by SRB assay; type: functional; conditions: KM12, 48 h
SN12C = test: Cytotoxicity against human SN12C cells after 48 hrs by SRB assay; type: functional
[23] = Cytotoxicity against human OVCAR3 cells assessed as growth inhibition at 10 uM after 48 hrs by SRB assay; type: functional; conditions: OVCAR-3, 48 h, read-out: GI
SK-MEL-5 = test: Cytotoxicity against human SK-MEL-5 cells assessed as growth inhibition at 10 uM after 48 hrs by SRB assay; type: functional; conditions: SK-MEL-5, 48 h, read-out: GI
MDA-MB-435 [24] = test: Cytotoxicity against human MDA-MB-435 cells assessed as growth inhibition at 10 uM after 48 hrs by SRB assay; type: functional; conditions: MDA-MB-435, 48 h, read-out: GI
HT-29 = test: Cytotoxicity against human HT-29 cells assessed as growth inhibition at 10 uM after 48 hrs by SRB assay; type: functional; conditions: HT-29, 48 h, read-out: GI
[25] = Cytotoxicity against human SNB19 cells assessed as growth inhibition at 10 uM after 48 hrs by SRB assay; type: functional; conditions: SNB-19, 48 h, read-out: GI
[26] = Cytotoxicity against human HCT15 cells assessed as growth inhibition at 10 uM after 48 hrs by SRB assay; type: functional; conditions: HCT-15, 48 h, read-out: GI
786-0 = test: Cytotoxicity against human 786-0 cells assessed as growth inhibition at 10 uM after 48 hrs by SRB assay; type: functional; conditions: 786-0, 48 h, read-out: GI
KM12 [27] = test: Cytotoxicity against human KM12 cells assessed as growth inhibition at 10 uM after 48 hrs by SRB assay; type: functional; conditions: KM12, 48 h, read-out: GI
[28] = Cytotoxicity against human UO31 cells assessed as growth inhibition at 10 uM after 48 hrs by SRB assay; type: functional; conditions: UO-31, 48 h, read-out: GI
NCI-H322M = test: Cytotoxicity against human NCI-H322M cells assessed as growth inhibition at 10 uM after 48 hrs by SRB assay; type: functional; conditions: read-out: GI

Question: With `C=C1CC[C@@H]2[C@](C)(COC(C)=O)[C@H](OC(C)=O)CC[C@@]2(C)[C@@H]1CC(Sc1ccccc1)C1=CCOC1=O` (mixture of isomers) as the molecule, how does the Activity [1] read?
Answer: Its Activity is 54.23%.

Question: What about the GI50 [2] of the same molecule?
Answer: The GI50 was 1.71 µM.

Question: And the LC50 [2]?
Answer: Its LC50 is 7.39 µM.

Question: What about the TGI [2] of the same molecule?
Answer: Its TGI is 3.55 µM.

Question: What about the GI50 [3] of the same molecule?
Answer: The GI50 was 1.41 µM.

Question: And the LC50 (concentration killing 50% of cells) [3]?
Answer: The LC50 (concentration killing 50% of cells) was 5.33 µM.

Question: And the TGI [3]?
Answer: The TGI was 2.74 µM.

Question: And the Activity [4]?
Answer: The Activity was -84.17%.

Question: What about the GI50 (ACHN) of the same molecule?
Answer: The GI50 was 1.34 µM.

Question: What about the LC50 (ACHN) of the same molecule?
Answer: The LC50 was 6.01 µM.

Question: And the TGI (ACHN)?
Answer: Its TGI is 2.84 µM.

Question: And the Activity [5]?
Answer: The Activity was 11.88%.

Question: And the Activity (MDA-MB-435 [6])?
Answer: Its Activity is 101.38%.

Question: And the Activity [7]?
Answer: The Activity was 86.98%.

Question: And the Activity (KM12 [8])?
Answer: Its Activity is 18.58%.

Question: What about the GI50 (NCI-H522) of the same molecule?
Answer: The GI50 was 1.35 µM.

Question: And the LC50 (NCI-H522)?
Answer: The LC50 was 6.57 µM.

Question: And the TGI (NCI-H522)?
Answer: Its TGI is 2.98 µM.

Question: What about the GI50 [9] of the same molecule?
Answer: The GI50 was 1.14 µM.

Question: And the LC50 (concentration killing 50% of cells) [9]?
Answer: The LC50 (concentration killing 50% of cells) was 4.92 µM.

Question: And the TGI [9]?
Answer: Its TGI is 2.37 µM.

Question: And the Activity [10]?
Answer: The Activity was -4.72%.

Question: And the Activity [11]?
Answer: Its Activity is 29.37%.

Question: And the Activity (SR)?
Answer: Its Activity is 2.9%.

Question: What about the Activity [12] of the same molecule?
Answer: Its Activity is 10.07%.

Question: What about the GI50 [13] of the same molecule?
Answer: Its GI50 is 2.71 µM.

Question: What about the LC50 [13] of the same molecule?
Answer: The LC50 was greater than 100 µM.

Question: And the TGI [13]?
Answer: The TGI was 8.71 µM.

Question: What about the GI50 (CCRF-CEM) of the same molecule?
Answer: The GI50 was 0.26 µM.

Question: And the TGI (CCRF-CEM)?
Answer: The TGI was 1.19 µM.

Question: And the CC50 (CCRF-CEM; read-out: LC50 (the source's name))?
Answer: Its CC50 is greater than 100 µM.

Question: And the GI50 [14]?
Answer: Its GI50 is 1.48 µM.

Question: What about the LC50 [14] of the same molecule?
Answer: The LC50 was greater than 100 µM.

Question: What about the TGI [14] of the same molecule?
Answer: The TGI was 6.15 µM.

Question: What about the Activity (MDA-MB-468 [15]) of the same molecule?
Answer: The Activity was -61.07%.

Question: And the GI50 (EKVX [16])?
Answer: The GI50 was 2.43 µM.

Question: And the LC50 (EKVX [16])?
Answer: Its LC50 is greater than 100 µM.

Question: What about the TGI (EKVX [16]) of the same molecule?
Answer: The TGI was 10.4 µM.

Question: And the GI50 [17]?
Answer: Its GI50 is 0.29 µM.

Question: What about the LC50 [17] of the same molecule?
Answer: The LC50 was 3.97 µM.

Question: And the TGI [17]?
Answer: Its TGI is 1.19 µM.

Question: What about the GI50 [18] of the same molecule?
Answer: Its GI50 is 4.12 µM.

Question: What about the LC50 [18] of the same molecule?
Answer: Its LC50 is greater than 100 µM.

Question: What about the TGI [18] of the same molecule?
Answer: Its TGI is 27.3 µM.

Question: What about the Activity [19] of the same molecule?
Answer: Its Activity is 0.83%.

Question: What about the GI50 (MDA-MB-468 [20]) of the same molecule?
Answer: The GI50 was 1.41 µM.

Question: And the LC50 (MDA-MB-468 [20])?
Answer: Its LC50 is 7.53 µM.

Question: And the TGI (MDA-MB-468 [20])?
Answer: Its TGI is 3.26 µM.

Question: And the Activity (EKVX [21])?
Answer: Its Activity is 57.74%.

Question: What about the GI50 (KM12 [22]) of the same molecule?
Answer: The GI50 was 1.4 µM.

Question: What about the LC50 (KM12 [22]) of the same molecule?
Answer: Its LC50 is 6.25 µM.

Question: And the TGI (KM12 [22])?
Answer: The TGI was 2.96 µM.

Question: And the GI50 (SN12C)?
Answer: Its GI50 is 2.1 µM.

Question: And the LC50 (concentration killing 50% of cells) (SN12C)?
Answer: The LC50 (concentration killing 50% of cells) was greater than 100 µM.

Question: And the TGI (SN12C)?
Answer: The TGI was 7.07 µM.

Question: What does the source list for `C=C1CC[C@@H]2[C@](C)(CO)[C@H](O)CC[C@@]2(C)[C@@H]1C/C=C1/C(=O)OC[C@H]1O` [ANDROGRAPHOLIDE]?
Answer: inhibition of growth at 10 µM [23]: 40.8%; Activity [1]: 110.33%; inhibition of growth at 10 µM (SK-MEL-5): 22.7%; Activity [4]: 59.17%; Activity [5]: 84.48%; Activity (MDA-MB-435 [6]): 72.62%; Activity [7]: 61.95%; inhibition of growth at 10 µM (MDA-MB-435 [24]): 27.4%; Activity (KM12 [8]): 80.24%; inhibition of growth at 10 µM (HT-29): 73%; inhibition of growth at 10 µM [25]: 12%; Activity [10]: 83.28%; inhibition of growth at 10 µM [26]: 38.1%; Activity [11]: 76.51%; Activity (SR): 79.53%; Activity [12]: 83.75%; inhibition of growth at 10 µM (786-0): 15.3%; Activity (MDA-MB-468 [15]): 42%; Activity [19]: 44.29%; inhibition of growth at 10 µM (KM12 [27]): 19.8%; inhibition of growth at 10 µM [28]: 10.4%; inhibition of growth at 10 µM (NCI-H322M): 7.26%; Activity (EKVX [21]): 104.75%
